The structures appear in SMILES notation.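 Test compounds were applied to cells in 96-well plates for 48 hours at 5 doses. Here, GI50 denotes the concentration required for 50% inhibition of growth. At the TGI there is no net growth.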

Common to all, as to test: NCI anticancer screen, dose series, 48 h
Test [1] relates to BT-549 breast.
Test [2] concerns A549 NSCLC.
For test [3], the system named is SR leukemia.
For test [4], the system named is NCI/ADR-RES ovarian.
Test [5] deals with ACHN renal.
Test [6] concerns DU-145 prostate.
Test [7] has as its system K-562 leukemia.
Test [8] concerns NCI-H23 lung.
In test [9] the test system is MCF7 breast.
Test [10] has as its system SK-OV-3 ovarian.

Turning to `CCOC(=O)c1cnn2c3ccccc3n(S(=O)(=O)c3ccc(OC)cc3)c12`, the GI50 in [1] is 0.34 µM; in [2], 0.483 µM; in test [3], 0.238 µM; in test [4] it was 0.23 µM; in test [5] it was 0.811 µM; in test [6] it was 0.395 µM. Further, the GI50 was 0.0553 µM in test [7], 0.393 µM in test [8], 0.0998 µM in test [9] and 0.786 µM in test [10]. Moreover, the TGI was 13.1 µM in test [1]; more than 100 µM in [2]; more than 100 µM in test [3]; 24.5 µM in test [4]; more than 100 µM in test [5]; more than 24.2 µM in [6]. In addition, the TGI in test [7], in [8], in [9] and in test [10] was more than 100 µM in each case.

In the case of `CCS(=O)(=O)c1ccc(OC)c(Nc2ncc(-c3ccccc3Cl)o2)c1`, the GI50 was 11.8 µM in test [1]; 10 µM in [2]; 15.5 µM in test [3]; 8.03 µM in [4]; more than 19.1 µM in test [5]; 10.1 µM in test [6]. Also, the GI50 is 11 µM in [7], 7.89 µM in [8], 8.27 µM in [9] and 8.47 µM in [10]. For the same molecule, the TGI in test [1], in test [2], in test [3], in test [4], in [5] and in test [6] was more than 25 µM each time. Further, the TGI in [7], in [8], in [9] and in [10] was more than 25 µM in each case.

For the molecule `O=C(NCc1ccco1)c1cccc(NC2=C(Cl)C(=O)N(Cc3ccccc3)C2=O)c1`, the GI50 in test [1] is 7.29 µM; in [2], 19.9 µM; in test [3], 2.94 µM; in test [4] it was 6.53 µM; in [5], 9.18 µM; in test [6], 5.3 µM. The GI50 is 5.24 µM in [7], 14.7 µM in [8], 11.5 µM in test [9] and 45.8 µM in [10]. In addition, the TGI is 30.7 µM in test [1]; more than 100 µM in test [2]; 19.9 µM in [3]; 34.3 µM in test [4]; 42.3 µM in [5]; 24.7 µM in test [6]. Moreover, the TGI in test [7] was more than 100 µM; in [8], 33.3 µM; in [9], more than 100 µM; in test [10], more than 100 µM.

On to `COc1cccc2c1C(=O)OC2c1cccc2ccccc12` (stereo not given), for which the TGI in test [1], in test [2], in test [3], in test [4], in [5] and in [6] was more than 100 µM in each case. In addition, the TGI in [7], in test [8], in [9] and in [10] was more than 100 µM throughout.

The record behind these values is PubChem BioAssay (NCI).
